# Assay results published in ChEMBL document CHEMBL4507256 (2021).
# What was measured:
# [1] = target: Serine/threonine-protein kinase ULK1 (Homo sapiens) (UniProt O75385); details: Compound concentration 1000.0 nM
# [2] = target: Bone morphogenetic protein receptor type-1A (Homo sapiens) (UniProt P36894); details: Compound concentration 1000.0 nM
# [3] = target: Cyclin-dependent kinase 15 (Homo sapiens) (UniProt Q96Q40); details: Compound concentration 1000.0 nM
# [4] = target: Dual specificity mitogen-activated protein kinase kinase 2 (Homo sapiens) (UniProt P36507); details: Compound concentration 1000.0 nM
# Dual specificity mitogen-activated protein kinase kinase 2 (Homo sapiens), sequence (P36507 whole entry): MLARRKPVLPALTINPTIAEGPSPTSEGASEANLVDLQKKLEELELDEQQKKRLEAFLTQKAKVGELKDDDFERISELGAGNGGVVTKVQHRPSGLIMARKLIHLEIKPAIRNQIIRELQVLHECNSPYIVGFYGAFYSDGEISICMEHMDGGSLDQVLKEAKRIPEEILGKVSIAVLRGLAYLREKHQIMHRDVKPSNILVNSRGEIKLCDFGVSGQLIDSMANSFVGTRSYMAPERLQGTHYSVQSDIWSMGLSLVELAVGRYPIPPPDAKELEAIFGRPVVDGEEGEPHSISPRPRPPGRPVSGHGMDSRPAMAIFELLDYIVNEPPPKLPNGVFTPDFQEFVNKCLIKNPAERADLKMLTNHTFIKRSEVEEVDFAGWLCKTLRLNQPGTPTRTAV
# [5] = target: Ephrin type-A receptor 3 (Homo sapiens) (UniProt P29320); details: Compound concentration 1000.0 nM
# [6] = target: Serine/threonine-protein kinase Nek11 (Homo sapiens) (UniProt Q8NG66); details: Compound concentration 1000.0 nM
# Serine/threonine-protein kinase Nek11 (Homo sapiens), sequence (Q8NG66 whole entry): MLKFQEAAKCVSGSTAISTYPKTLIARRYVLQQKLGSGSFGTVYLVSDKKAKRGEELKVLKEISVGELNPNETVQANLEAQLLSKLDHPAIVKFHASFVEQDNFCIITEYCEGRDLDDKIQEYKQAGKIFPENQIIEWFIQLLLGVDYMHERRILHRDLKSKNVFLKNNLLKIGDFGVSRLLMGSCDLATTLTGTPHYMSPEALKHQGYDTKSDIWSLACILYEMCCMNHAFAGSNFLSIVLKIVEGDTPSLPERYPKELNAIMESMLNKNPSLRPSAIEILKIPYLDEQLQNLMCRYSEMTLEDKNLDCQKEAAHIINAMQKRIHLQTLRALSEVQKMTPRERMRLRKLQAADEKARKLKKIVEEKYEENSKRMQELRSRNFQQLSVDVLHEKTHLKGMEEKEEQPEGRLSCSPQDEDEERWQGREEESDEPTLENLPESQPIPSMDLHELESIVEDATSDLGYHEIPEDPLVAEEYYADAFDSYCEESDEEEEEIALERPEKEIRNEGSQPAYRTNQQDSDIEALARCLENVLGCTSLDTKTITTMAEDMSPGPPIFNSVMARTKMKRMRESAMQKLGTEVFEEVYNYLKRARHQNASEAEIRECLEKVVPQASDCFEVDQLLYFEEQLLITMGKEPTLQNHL
# [7] = target: Calcium/calmodulin-dependent protein kinase type 1D (Homo sapiens) (UniProt Q8IU85); details: Compound concentration 1000.0 nM
# [8] = target: Receptor-type tyrosine-protein kinase FLT3 (Homo sapiens) (UniProt P36888); details: Compound concentration 1000.0 nM
# [9] = target: Serine/threonine-protein kinase RIO1 (Homo sapiens) (UniProt Q9BRS2); details: Compound concentration 1000.0 nM
# [10] = target: Serine/threonine-protein kinase Nek1 (Homo sapiens) (UniProt Q96PY6); details: Compound concentration 1000.0 nM
# [11] = target: Serine/threonine-protein kinase TNNI3K (Homo sapiens) (UniProt Q59H18); details: Compound concentration 1000.0 nM
# [12] = target: Mu-type opioid receptor (Homo sapiens) (UniProt P35372); details: Compound concentration 10.0 uM
# [13] = target: Inhibitor of nuclear factor kappa-B kinase subunit beta (Homo sapiens) (UniProt O14920); details: Compound concentration 1000.0 nM
# Inhibitor of nuclear factor kappa-B kinase subunit beta (Homo sapiens), sequence (O14920 whole entry): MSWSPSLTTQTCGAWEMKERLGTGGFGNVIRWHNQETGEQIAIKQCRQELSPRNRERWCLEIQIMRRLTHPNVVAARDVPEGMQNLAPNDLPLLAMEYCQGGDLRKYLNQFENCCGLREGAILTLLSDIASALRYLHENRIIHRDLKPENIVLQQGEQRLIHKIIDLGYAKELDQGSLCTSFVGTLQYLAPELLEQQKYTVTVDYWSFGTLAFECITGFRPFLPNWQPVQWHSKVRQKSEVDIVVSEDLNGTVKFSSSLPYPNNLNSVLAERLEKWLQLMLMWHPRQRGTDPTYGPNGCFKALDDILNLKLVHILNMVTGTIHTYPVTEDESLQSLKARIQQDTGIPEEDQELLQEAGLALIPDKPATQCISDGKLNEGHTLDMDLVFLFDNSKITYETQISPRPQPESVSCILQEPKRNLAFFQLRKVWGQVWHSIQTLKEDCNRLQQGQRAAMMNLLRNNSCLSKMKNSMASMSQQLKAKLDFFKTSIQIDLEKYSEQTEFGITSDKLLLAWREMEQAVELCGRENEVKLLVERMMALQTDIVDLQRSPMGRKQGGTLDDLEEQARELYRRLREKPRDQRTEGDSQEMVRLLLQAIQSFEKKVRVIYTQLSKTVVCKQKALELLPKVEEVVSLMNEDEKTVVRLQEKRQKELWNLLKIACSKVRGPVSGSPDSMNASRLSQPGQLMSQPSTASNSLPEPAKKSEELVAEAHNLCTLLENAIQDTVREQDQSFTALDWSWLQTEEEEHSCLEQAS
# [14] = target: Mitogen-activated protein kinase kinase kinase 3 (Homo sapiens) (UniProt Q99759); details: Compound concentration 1000.0 nM
# [15] = target: Fibroblast growth factor receptor 3 (Homo sapiens) (UniProt P22607); details: Compound concentration 1000.0 nM
# [16] = target: Sigma non-opioid intracellular receptor 1 (Homo sapiens, UniProt Q99720); details: Compound concentration 10.0 uM
# [17] = target: Ephrin type-A receptor 2 (Homo sapiens) (UniProt P29317); details: Compound concentration 1000.0 nM
# [18] = target: Serine/threonine-protein kinase PRP4 homolog (Homo sapiens) (UniProt Q13523); details: Compound concentration 1000.0 nM
# [19] = target: Calcium/calmodulin-dependent protein kinase type 1 (Homo sapiens) (UniProt Q14012); details: Compound concentration 1000.0 nM
# [20] = target: Protein kinase C epsilon type (Homo sapiens) (UniProt Q02156); details: Compound concentration 1000.0 nM
# [21] = target: Serine/threonine-protein kinase PLK3 (Homo sapiens) (UniProt Q9H4B4); details: Compound concentration 1000.0 nM
# [22] = target: TRAF2 and NCK-interacting protein kinase (Homo sapiens) (UniProt Q9UKE5); details: Compound concentration 1000.0 nM
# [23] = target: Mitogen-activated protein kinase kinase kinase 10 (Homo sapiens) (UniProt Q02779); details: Compound concentration 1000.0 nM
# [24] = target: Serine/threonine-protein kinase tousled-like 1 (Homo sapiens) (UniProt Q9UKI8); details: Compound concentration 1000.0 nM
# [25] = target: Serine/threonine-protein kinase LATS2 (Homo sapiens) (UniProt Q9NRM7); details: Compound concentration 1000.0 nM
# [26] = target: Tyrosine-protein kinase Srms (Homo sapiens) (UniProt Q9H3Y6); details: Compound concentration 1000.0 nM
# Tyrosine-protein kinase Srms (Homo sapiens), sequence (Q9H3Y6 whole entry, canonical isoform): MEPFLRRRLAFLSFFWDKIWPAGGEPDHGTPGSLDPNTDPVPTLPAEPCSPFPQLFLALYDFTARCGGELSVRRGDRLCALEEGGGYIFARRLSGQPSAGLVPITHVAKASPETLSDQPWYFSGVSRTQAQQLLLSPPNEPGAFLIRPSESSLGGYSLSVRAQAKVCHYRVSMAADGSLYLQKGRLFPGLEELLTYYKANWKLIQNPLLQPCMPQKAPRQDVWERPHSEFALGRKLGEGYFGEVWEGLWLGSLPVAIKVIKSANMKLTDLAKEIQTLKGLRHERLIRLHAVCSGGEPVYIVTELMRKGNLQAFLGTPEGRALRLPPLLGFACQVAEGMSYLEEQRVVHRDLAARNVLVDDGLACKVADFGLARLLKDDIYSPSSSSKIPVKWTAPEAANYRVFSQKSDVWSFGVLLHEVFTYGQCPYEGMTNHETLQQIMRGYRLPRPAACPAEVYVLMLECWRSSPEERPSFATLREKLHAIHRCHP
# [27] = system: Phosphatidylinositol 4,5-bisphosphate 3-kinase catalytic subunit alpha isoform (Homo sapiens), P42336 [H1047Y]; details: Compound concentration 1000.0 nM
# Phosphatidylinositol 4,5-bisphosphate 3-kinase catalytic subunit alpha isoform (Homo sapiens), P42336 [H1047Y], sequence (P42336 whole entry H1047Y, canonical isoform): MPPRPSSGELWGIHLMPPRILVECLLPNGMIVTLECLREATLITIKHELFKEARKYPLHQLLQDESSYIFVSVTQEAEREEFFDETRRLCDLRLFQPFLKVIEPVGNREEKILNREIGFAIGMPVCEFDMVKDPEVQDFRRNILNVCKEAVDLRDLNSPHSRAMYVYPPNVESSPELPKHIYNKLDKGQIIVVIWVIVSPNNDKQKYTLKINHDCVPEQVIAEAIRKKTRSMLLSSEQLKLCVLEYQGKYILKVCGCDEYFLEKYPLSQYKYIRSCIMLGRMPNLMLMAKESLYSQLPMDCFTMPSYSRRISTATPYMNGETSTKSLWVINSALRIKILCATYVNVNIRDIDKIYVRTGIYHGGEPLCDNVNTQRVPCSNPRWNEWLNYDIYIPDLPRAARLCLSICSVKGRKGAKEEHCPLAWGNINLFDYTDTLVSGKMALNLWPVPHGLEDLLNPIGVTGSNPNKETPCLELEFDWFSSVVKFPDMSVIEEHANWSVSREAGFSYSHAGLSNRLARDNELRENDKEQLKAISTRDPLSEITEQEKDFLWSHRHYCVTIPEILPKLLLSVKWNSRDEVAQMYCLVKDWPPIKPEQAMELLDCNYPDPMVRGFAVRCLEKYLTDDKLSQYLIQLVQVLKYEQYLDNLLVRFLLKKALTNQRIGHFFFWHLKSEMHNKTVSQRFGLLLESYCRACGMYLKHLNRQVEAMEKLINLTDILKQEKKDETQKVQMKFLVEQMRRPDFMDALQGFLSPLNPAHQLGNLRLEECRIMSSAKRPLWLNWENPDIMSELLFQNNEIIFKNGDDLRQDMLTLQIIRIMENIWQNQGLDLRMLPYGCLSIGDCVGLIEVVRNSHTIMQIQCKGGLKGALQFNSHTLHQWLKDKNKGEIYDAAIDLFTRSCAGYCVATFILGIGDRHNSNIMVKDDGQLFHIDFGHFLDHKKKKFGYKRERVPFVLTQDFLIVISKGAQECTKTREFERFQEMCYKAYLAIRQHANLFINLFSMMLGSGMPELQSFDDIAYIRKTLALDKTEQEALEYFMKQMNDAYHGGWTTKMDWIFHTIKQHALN
# [28] = target: Cyclin-dependent kinase 18 (Homo sapiens) (UniProt Q07002); details: Compound concentration 1000.0 nM
# [29] = target: Cyclin-dependent kinase 9 (Homo sapiens) (UniProt P50750); details: Compound concentration 1000.0 nM
# [30] = target: RAC-beta serine/threonine-protein kinase (Homo sapiens) (UniProt P31751); details: Compound concentration 1000.0 nM
# [31] = target: Serine/threonine-protein kinase PLK1 (Homo sapiens) (UniProt P53350); details: Compound concentration 1000.0 nM
# [32] = target: Casein kinase II subunit alpha' (Homo sapiens) (UniProt P19784); details: Compound concentration 1000.0 nM
# [33] = target: Tyrosine-protein kinase ITK/TSK (Homo sapiens) (UniProt Q08881); details: Compound concentration 1000.0 nM
# [34] = target: Serine/threonine-protein kinase 26 (Homo sapiens) (UniProt Q9P289); details: Compound concentration 1000.0 nM
# [35] = target: Hormonally up-regulated neu tumor-associated kinase (Homo sapiens) (UniProt P57058); details: Compound concentration 1000.0 nM
# [36] = target: Serine/threonine-protein kinase 38-like (Homo sapiens) (UniProt Q9Y2H1); details: Compound concentration 1000.0 nM
# [37] = target: Tyrosine-protein kinase Blk (Homo sapiens) (UniProt P51451); details: Compound concentration 1000.0 nM
# [38] = target: Angiopoietin-1 receptor (Homo sapiens) (UniProt Q02763); details: Compound concentration 1000.0 nM
# Angiopoietin-1 receptor (Homo sapiens), sequence (Q02763 whole entry): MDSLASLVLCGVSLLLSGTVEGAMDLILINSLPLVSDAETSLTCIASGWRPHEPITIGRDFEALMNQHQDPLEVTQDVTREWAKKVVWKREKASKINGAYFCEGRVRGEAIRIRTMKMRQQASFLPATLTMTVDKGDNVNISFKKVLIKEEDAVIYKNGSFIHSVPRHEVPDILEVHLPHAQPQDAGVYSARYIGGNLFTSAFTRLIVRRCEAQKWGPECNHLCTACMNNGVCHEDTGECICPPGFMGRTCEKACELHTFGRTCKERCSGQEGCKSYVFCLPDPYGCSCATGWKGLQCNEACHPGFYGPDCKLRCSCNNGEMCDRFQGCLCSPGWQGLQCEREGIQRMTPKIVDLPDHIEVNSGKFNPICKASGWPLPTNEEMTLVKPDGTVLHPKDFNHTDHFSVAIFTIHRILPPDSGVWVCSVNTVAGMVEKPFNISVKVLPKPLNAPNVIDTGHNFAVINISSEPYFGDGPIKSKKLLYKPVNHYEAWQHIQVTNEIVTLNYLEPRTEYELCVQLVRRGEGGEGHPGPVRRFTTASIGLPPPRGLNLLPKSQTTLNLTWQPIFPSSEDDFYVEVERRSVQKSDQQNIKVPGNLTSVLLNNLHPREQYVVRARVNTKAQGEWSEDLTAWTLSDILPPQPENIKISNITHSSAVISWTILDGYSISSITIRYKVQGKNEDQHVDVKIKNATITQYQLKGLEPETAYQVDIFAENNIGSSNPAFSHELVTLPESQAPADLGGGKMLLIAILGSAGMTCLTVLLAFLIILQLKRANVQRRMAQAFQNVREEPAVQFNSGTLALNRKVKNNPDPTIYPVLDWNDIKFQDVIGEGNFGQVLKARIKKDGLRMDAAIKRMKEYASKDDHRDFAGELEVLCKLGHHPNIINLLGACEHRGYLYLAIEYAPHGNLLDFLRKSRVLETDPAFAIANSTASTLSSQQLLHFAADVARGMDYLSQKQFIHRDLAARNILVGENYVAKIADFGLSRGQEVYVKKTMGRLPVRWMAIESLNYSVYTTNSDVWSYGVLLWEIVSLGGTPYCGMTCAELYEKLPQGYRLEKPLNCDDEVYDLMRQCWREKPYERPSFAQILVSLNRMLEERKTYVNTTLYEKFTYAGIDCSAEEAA
# [39] = target: Bone morphogenetic protein receptor type-1B (Homo sapiens) (UniProt O00238); details: Compound concentration 1000.0 nM
# [40] = target: Serine/threonine-protein kinase MRCK beta (Homo sapiens) (UniProt Q9Y5S2); details: Compound concentration 1000.0 nM
# [41] = system: Receptor-type tyrosine-protein kinase FLT3 (Homo sapiens), P36888 [N841I]; details: Compound concentration 1000.0 nM
# [42] = target: Cyclin-G-associated kinase (Homo sapiens) (UniProt O14976); details: Compound concentration 1000.0 nM
# [43] = target: Serine/threonine-protein kinase OSR1 (Homo sapiens) (UniProt O95747); details: Compound concentration 1000.0 nM
# [44] = target: Serine/threonine-protein kinase SIK1 (Homo sapiens) (UniProt P57059); details: Compound concentration 1000.0 nM
# [45] = target: Histamine H1 receptor (Homo sapiens) (UniProt P35367); details: Compound concentration 10.0 uM
# Histamine H1 receptor (Homo sapiens), sequence (P35367 whole entry): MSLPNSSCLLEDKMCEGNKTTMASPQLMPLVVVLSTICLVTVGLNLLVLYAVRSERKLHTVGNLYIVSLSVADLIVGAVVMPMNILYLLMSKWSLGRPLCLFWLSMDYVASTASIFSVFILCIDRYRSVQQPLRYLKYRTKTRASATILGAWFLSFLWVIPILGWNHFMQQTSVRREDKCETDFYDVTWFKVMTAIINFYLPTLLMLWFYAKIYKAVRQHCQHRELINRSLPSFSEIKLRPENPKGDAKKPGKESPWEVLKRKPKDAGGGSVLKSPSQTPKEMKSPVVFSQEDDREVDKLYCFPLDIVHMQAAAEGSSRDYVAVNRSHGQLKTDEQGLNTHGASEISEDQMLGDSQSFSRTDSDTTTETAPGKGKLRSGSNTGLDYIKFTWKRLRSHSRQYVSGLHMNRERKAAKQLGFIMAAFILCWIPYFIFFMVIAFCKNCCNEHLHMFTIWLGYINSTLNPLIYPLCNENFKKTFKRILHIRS
smiles,measurement,setting,value
CCC(=N\O)/C(C)=C/c1ccc(F)cc1 [A-079],residual activity,[1],85%
same,residual activity,[2],86%
same,residual activity,[3],80%
same,residual activity,[4],100%
same,residual activity,[5],100%
same,residual activity,[6],100%
same,residual activity,[7],100%
same,residual activity,[8],100%
same,residual activity,[9],80%
same,residual activity,[10],94%
same,residual activity,[11],70%
same,inhibition,[12],-5.9%
same,residual activity,[13],83%
same,residual activity,[14],86%
same,residual activity,[15],91%
same,inhibition,[16],84%
same,residual activity,[17],84%
same,residual activity,[18],100%
same,residual activity,[19],100%
same,residual activity,[20],76%
same,residual activity,[21],86%
same,residual activity,[22],93%
same,residual activity,[23],100%
same,residual activity,[24],100%
same,residual activity,[25],100%
same,residual activity,[26],76%
same,residual activity,[27],82%
same,residual activity,[28],89%
same,residual activity,[29],93%
same,residual activity,[30],88%
same,residual activity,[31],93%
same,residual activity,[32],100%
same,residual activity,[33],90%
same,residual activity,[34],81%
same,residual activity,[35],76%
same,residual activity,[36],95%
same,residual activity,[37],87%
same,residual activity,[38],89%
same,residual activity,[39],87%
same,residual activity,[40],100%
same,residual activity,[41],74%
same,residual activity,[42],99%
same,residual activity,[43],80%
same,residual activity,[44],80%
same,inhibition,[45],9.24%
CCC(=N\O)/C(C)=C/c1ccc(F)c(C)c1 [A-226],residual activity,[1],96%
same,residual activity,[2],100%
same,residual activity,[3],100%
same,residual activity,[4],92%
same,residual activity,[5],99%
same,residual activity,[6],100%
same,residual activity,[7],92%
same,residual activity,[8],93%
same,residual activity,[9],100%
same,residual activity,[10],100%
same,residual activity,[11],53%
same,inhibition,[12],-1.52%
same,residual activity,[13],100%
same,residual activity,[14],100%
same,residual activity,[15],96%
same,inhibition,[16],86.8%
same,residual activity,[17],89%
same,residual activity,[18],85%
same,residual activity,[19],86%
same,residual activity,[20],62%
same,residual activity,[21],100%
same,residual activity,[22],96%
same,residual activity,[23],75%
same,residual activity,[24],100%
same,residual activity,[25],75%
same,residual activity,[26],100%
same,residual activity,[27],100%
same,residual activity,[28],87%
same,residual activity,[29],96%
same,residual activity,[30],84%
same,residual activity,[31],82%
same,residual activity,[32],73%
same,residual activity,[33],91%
same,residual activity,[34],100%
same,residual activity,[35],91%
same,residual activity,[36],81%
same,residual activity,[37],91%
same,residual activity,[38],85%
same,residual activity,[39],80%
same,residual activity,[40],69%
same,residual activity,[41],49%
same,residual activity,[42],96%
same,residual activity,[43],100%
same,residual activity,[44],96%
same,inhibition,[45],15.2%
